The subject of series [1] is DOPA liposome (artificial lipid membrane). Kind of series: Artificial lipid membrane binding by using Biacore S51 system. The settings on record: 50 μM compound; for Judgement (phospholipidosis inductive effect): DOPA liposome; for Corrected value of binding response (RU): DOPA liposome on Sensor Chip L1, 37° C., PBS/5% DMSO (pH 7.4 or PH 6.0). As for the experimental part: Artificial Lipid Membrane Binding Account by Using Biacore (Registered Trademark) S51 System
10 mM of 1,2-Dioleoyl-sn-Glycero-3-Phosphate, Monosodium Salt (hereinafter abbreviated as DOPA) chloroform solution was evaporated to dryness by means of an aspirator, and 0.6 mL of PBS/5% dimethyl sulfoxide (hereinafter abbreviated as DMSO) was added. The chloroform solution was fully suspended by means of a vortex mixer, and the freezing and thawing were repeated for 5 times. Liposome was created by means of a liposome adjustment instrument (manufactured by Avestin Inc.) and 2 syringes, and was diluted to 0.5 mM with PBS/5% DMSO just prior to immobilization.
(ii) Measurement Compound Adjustment
The 38 μL of 1×PBS is added to 2 μL DMSO solution (10 mM), and further the 360 μL 1×PBS/5% DMSO was added; the 50 μM of final concentration in the 1×PBS/5% DMSO was adjusted and measured.
All of the following analysis used Biacore® S51 system; the measurement conditions were set by Biacore S51 Control Soft.
The measurement temperature was set to be 37° C., and the 1×PBS/5% DMSO (pH 7.4 or PH 6.0) was used as a buffer. Series S Sensor Chip L1 was used for a sensor chip. The DOPA was immobilized in one of the measuring spots on the sensor surface, and the central spot was used as a reference.
Immobilization of liposome was conducted at a flow rate of 10 μL/min for about 3 minutes; then the compound was added at a flow rate of 30 μL/min and the interaction was measured. The measurement conditions are as follows:
Assay buffer: PBS/5% DMSO (pH 7.4 or PH 6.0)
Measurement temperature: 37° C.
Sensor chip: Series S Sensor Chip L1
Flow rate: 10 μL/min at the time of the liposome immobilization; 30 μL/min at the time of the measurement of interaction with the compound
Regeneration: 20 mM CHAPS (3-[(3-Cholamidopropyl)dimethylammonio]-1-propanesulfonate), Isopropanol/50 mM sodium hydroxide solution=40/60 (volume ratio) mixture (60 seconds)
The data processing was conducted by means of method of Abdiche et al. (Analytical biochemistry, 328, 233-243 (2004)) by using Biacore S51 Evaluation Soft.
Regarding the value of binding response (RU) in which the value of reference was subtracted, it was divided by a sample molecular weight after minute error of the DMSO concentration included in the sample solution was corrected. In addition, the value obtained here was divided by an amount of capture at the time of the cycle because the value obtained here was proportional to the amount of capture of the liposome; further, the value was multiplied by a million to be considered as a corrected value (Corrected value=1000000)×RU (test compound)/molecular quantity (test compound) RU (liposome)).
Propranolol, Amiodarone, Desipramine, Imipramine and Procaine were added as the controls, and it was recognized that the variation of the binding response was within ca. 10 to 15%.
The compound, in which a value of the binding response after the correction was equal to or more than 150, was determined as positive.
On the technique in general: In SPR one partner is held on a chip, and binding of the other changes the refractive index at the surface.

The next series concerns the target T1, CXCR4 (Homo sapiens, UniProt P61073).
T1 construct: a human T cell strain in which CXCR4 is known to be expressed; endogenous in cells; host or cells: CEM cells (human T cell strain)
Kind of series: Study for inhibition of binding human SDF-1 to CEM cells (125I-SDF-1). As to conditions: 125I-SDF-1 binding to CEM cells. An excerpt:
Specifically, as a system of screening a compound that inhibits the binding between SDF-1 and CXCR4, for example a system of measuring the binding between iodine-labeled SDF-1 and a human T cell strain in which CXCR4 is known to be expressed is operable. The identical idea is possible since macrophage (R5) HIV and RANTES, MIP-1α, and MIP-1β all bind to CCR5.
Study for Inhibition of Binding Human SDF-1 to CEM Cells
To human T cell strain CEM cells in a binding buffer (containing HEPES and BSA), the test compound and ^125I-SDF-1 (NEN) were added and the mixture was incubated at 4° C. for 60 minutes. The reacted CEM cells were rapidly filtrated with a GF/B membrane filter plate (Packard) to adsorb. The plate was washed with PBS three times and then dried. Microscint+20 (Packard) was added thereto. An amount of the radioactivity bound to the CEM cells was measured using Top Count (Packard) and inhibition (%) of the test compound was calculated according to the following equation: Inhibition={(Et−Ea)/(Et−Ec)}×100
Et: amount of radioactivity when the test compound is not added,
Ec: amount of radioactivity when non-radioactive SDF-1 (Pepro Tech) is added in an amount of 1000 times as much as ^125I-SDF-1 as a test compound, and
Ea: amount of radioactivity when the test compound is added.

T1 sequence (P61073 whole entry): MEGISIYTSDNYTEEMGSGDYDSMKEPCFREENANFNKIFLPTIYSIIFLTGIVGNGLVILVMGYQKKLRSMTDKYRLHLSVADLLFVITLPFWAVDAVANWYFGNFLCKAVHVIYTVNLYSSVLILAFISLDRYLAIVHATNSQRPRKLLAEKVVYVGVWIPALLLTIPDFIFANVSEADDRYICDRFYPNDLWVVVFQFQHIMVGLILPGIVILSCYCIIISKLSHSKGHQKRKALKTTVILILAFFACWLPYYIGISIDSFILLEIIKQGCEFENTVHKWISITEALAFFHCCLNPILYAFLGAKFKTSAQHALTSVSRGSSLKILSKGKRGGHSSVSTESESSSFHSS

For the compound `CC(C)CN1CCC2(CCN(Cc3ccc(C(=O)N(Cc4ncc[nH]4)Cc4ncc[nH]4)cc3)CC2)C1` [Example 8 (113), N,N-bis(1H-imidazol-2-ylmethyl)-4-[(2-isobutyl-2,8-diazaspiro[4.5]dec-8-yl)methyl]benzamide], in series [1], the “Judgement (phospholipidosis inductive effect)” value is “negative” and the “Corrected value of binding response (RU)” value turned out to be 66.6 RU. For the same compound, at CXCR4, the half-inhibitory concentration (IC50) is 0.015 µM.
Take `CC(C)(C)CN1CCC2(CC1)CCN(C(=O)Cc1ccc(CN(Cc3ncc[nH]3)Cc3ncc[nH]3)cc1)C2` [Example 40 (68), 1-(4-{2-[8-(2,2-dimethylpropyl)-2,8-diazaspiro[4.5]dec-2-yl]-2-oxoethyl}phenyl)-N,N-bis(1H-imidazol-2-ylmethyl)methanamine]: in series [1], the “Judgement (phospholipidosis inductive effect)” value is given as “negative” and the “Corrected value of binding response (RU)” value came out at 77.6 RU.
Taken in the same sequence, the figures for `CCC(CC)N1CCC2(CCN(C(=O)c3ccc(CN(Cc4ncc[nH]4)Cc4nccn4C)cc3)C2)CC1` [Example 40 (72), 1-(4-{[8-(1-ethylpropyl)-2,8-diazaspiro[4.5]dec-2-yl]carbonyl}phenyl)-N-(1H-imidazol-2-ylmethyl)-N-[(1-methyl-1H-imidazol-2-yl)methyl]methanamine] were “negative” and 72.0 RU.
Taken in the same sequence, the figures for `O=C(CC(=O)N1CCC2(CCN(C3CCCCC3)CC2)C1)N1CCC(N(Cc2ncc[nH]2)Cc2ncc[nH]2)CC1` [Example 65 (4), 1-[3-(8-cyclohexyl-2,8-diazaspiro[4.5]dec-2-yl)-3-oxopropanoyl]-N,N-bis(1H-imidazol-2-ylmethyl)-4-piperidinamine] were “negative” and 36.0 RU.

In general, IC50 refers to the point on the concentration scale where inhibition reaches its midpoint. A higher IC50 goes with a need for much substance.

These data come from patent US8519124B2, “Chemokine receptor antagonists and use thereof” (Ono Pharmaceutical Co., Ltd., priority 2005, dated 2013).
